system: Male NMRI (SPF) mice fed a low-iron diet; experiment: Fe utilization in iron-deficient mouse model; assay type: in vivo; conditions: male NMRI mice on low-iron diet (approx. 5 ppm iron); 2 mg iron/kg body weight/day by stomach tube, days 1-5 and 8-12; utilization on day 15 calculated from hemoglobin and body weight increase versus control group
Method: The excellent Fe utilizations that can be accomplished through the Fe complexes according to the invention were measured by means of the following mouse model.
Male NMRI (SPF) mice (approximately 3 weeks old) were fed a low-iron diet (approx. 5 ppm iron) for approximately 3 weeks. The iron complexes were then administered to them by means of a stomach tube (2 mg iron/kg body weight/day) for 2 times 5 days, with an interruption of 2 days (days 1-5 and 8-12). Utilization on day 15 was calculated from the hemoglobin increase and the body weight increase in accordance with the formula
[formula] • 0.07=Factor for 70 ml blood per kg body weight (BW) • 0.0034=Factor for 0.0034 g Fe/g Hb • Hb1=Hemoglobin level (g/I) on day 1 • Hb2(3)=Hemoglobin level (g/I) on day 8 (or 15) • BW4=body weight (g) on day 1 • BW9(14)=body weight (g) on day 8 (or 15) • Hb1 Control=average hemoglobin level (g/I) on day 1 in the control group, • Hb2(3) Control=average hemoglobin level (g/I) on day 8 (or 15) in the control group, • BW4 Control=average body weight (g) on day 1 in the control group, • BW9(14) Control=average body weight (g) on day 8 (or 15) in the control group, • Fe Dos.=entire administered iron (mg Fe) over 5 or 10 days, • Fe ut.=(Hb2(3)*BW9(14)-Hb1*BW4)*0.07*0.0034 (mg Fe) Δ Utilization=Fe tot. utilized (examined group)—Fe ut. Control group, utilized from food, (mg Fe)

Substance	Utilization n 15 d (abs. %)
Tris(3-oxo-2-(piperidin-1-ylcarbonyl)butanenitrile)-iron(III) Complex [Example 5]	61 abs. %
Tris(3-oxoheptaneamide)-iron(III) Complex [Example 10]	45 abs. %
Tris(3-oxopentaneamide)-iron(III) Complex [Example 18]	81 abs. %
Tris(N,N-dibutyl-3-oxobutaneamide)-iron(III) Complex [Example 8]	69 abs. %
Tris(N,N-dimethyl-3-oxoheptaneamide)-iron(III) Complex [Example 17]	48 abs. %
Tris(N,N-dimethyl-3-oxopentaneamide)-iron(III) Complex [Example 19]	73 abs. %
Tris(N-butyl-3-oxobutaneamide)-iron(III) Complex [Example 7]	41 abs. %
Tris(N-methyl-3-oxoheptaneamide)-iron(III) Complex [Example 11]	75 abs. %
Tris-(1-(2,6-dimethylmorpholin-4-yl]butane-1,3-dione)-iron(III)-complex [Example 59]	80 abs. %
Tris-(1-(3-hydroxypiperidin-1-yl)butane-1,3-dione)-iron(III)-complex [Example 47]	61 abs. %
Tris-(1-(4-Hydroxypiperidin-1-yl)-4-methylpentane-1,3-dione)-iron(III)-complex [Example 64]	79 abs. %
Tris-(1-(4-hydroxypiperidin-1-yl)-butane-1,3-dione)-iron(II) complex [Example 14]	68 abs. %
Tris-(1-(4-hydroxypiperidin-1-yl)pentane-1,3-dione)-iron(III)-complex [Example 61]	73 abs. %
Tris-(1-(morpholin-4-yl)butane-1,3-dione)-iron(III)-complex [Example 33]	69 abs. %
Tris-(1-(morpholin-4-yl)pentane-1,3-dione)-iron(III)-complex [Example 62]	68 abs. %
Tris-(1-(piperidin-1-yl)-butane-1,3-dione)-iron(III) Complex [Example 9]	54 abs. %
Tris-(1-[4-(2-hydroxyethyl)piperazin-1-yl]butane-1,3-dione)-iron(III)-complex [Example 52]	84 abs. %
Tris-(1-[4-(hydroxymethyl)piperidin-1-yl]butane-1,3-dione)-iron(III)-complex [Example 48]	53 abs. %
Tris-(1-[(3S)-3-hydroxypyrrolidin-1-yl]butane-1,3-dione)-iron(III)-complex [Example 51]	78 abs. %
Tris-(2-Fluoro-3-oxo-N-propylbutanamide)-iron(III)-complex [Example 23]	88 abs. %
Tris-(2-Fluoro-N,N-dimethyl-3-oxobutanamide)-iron(II)-complex [Example 22]	78 abs. %
Tris-(3-acetyl-1-methylpiperidin-2-one)-iron(III)-complex [Example 31]	71 abs. %
Tris-(3-acetyl-1-methylpyrrolidin-2-one)-iron(III)-complex [Example 28]	73 abs. %
Tris-(3-oxo-N,N-dipropylbutaneamide)-iron(III) Complex [Example 15]	68 abs. %
Tris-(3-oxo-N-(propan-2-yl)butanamide)-iron(III)-complex [Example 36]	79 abs. %
Tris-(3-oxobutaneamide)-iron(III) Complex [Example 1]	61 abs. %

Substance	Utilization n 15 d (abs. %)
Tris-(4-Methoxy-1-(morpholin-4-yl)butane-1,3-dione)-iron(III)-complex [Example 27]	88 abs. %
Tris-(4-Methoxy-N,N-dimethyl-3-oxobutanamide)-iron(III)-complex [Example 24]	70 abs. %
Tris-(4-Methyl-1-(morpholin-4-yl)-pentane-1,3-dione)-iron(III)-complex [Example 26]	64 abs. %
Tris-(Ethyl (1-methyl-2-oxopyrrolidin-3-yl)(oxo)acetate)-iron(III)-complex [Example 29]	79 abs. %
Tris-(N,N,4-Trimethyl-3-oxopentanamide)-iron(III)-complex [Example 25]	60 abs. %
Tris-(N,N-bis-(2-hydroxyethyl)-3-oxobutaneamide)-iron(III) Complex [Example 12]	35 abs. %
Tris-(N,N-diethyl-3-oxobutaneamide)-iron(III) Complex [Example 2]	41 abs. %
Tris-(N,N-dimethyl-3-oxobutaneamide)-iron(III) Complex [Example 3]	95 abs. %
Tris-(N-(1-hydroxy-2-methylpropan-2-yl)-3-oxobutanamide)-iron(III)-complex [Example 41]	68 abs. %
Tris-(N-(2,3-dihydroxypropyl)-3-oxobutanamide)-iron(III)-complex [Example 46]	78 abs. %
Tris-(N-(2-Hydroxyethyl)-N,4-dimethyl-3-oxopentanamide)-iron(11)-complex [Example 65]	73 abs. %
Tris-(N-(2-hydroxyethyl)-N-methyl-3-oxobutanamide)-iron(III)-complex [Example 42]	30 abs. %
Tris-(N-(2-hydroxypropyl)-3-oxobutanamide)-iron(III)-complex [Example 43]	75 abs. %
Tris-(N-(2-methoxyethyl)-3-oxobutanamide)-iron(III)-complex [Example 34]	32 abs. %
Tris-(N-(3-hydroxypropyl)-3-oxobutanamide)-iron(III)-complex [Example 38]	77 abs. %
Tris-(N-(3-hydroxypropyl)-N-methyl-3-oxobutanamide)-iron(III)-complex [Example 54]	76 abs. %
Tris-(N-(4-hydroxybutyl)-3-oxobutanamide)-iron(III)-complex [Example 39]	66 abs. %
Tris-(N-(morpholin-4-yl)-3-oxobutanamide)-iron(III)-complex [Example 60]	80 abs. %
Tris-(N-(trans-4-hydroxycyclohexyl)-3-oxobutanamide)-iron(III)-complex [Example 55]	84 abs. %
Tris-(N-Butyl-3-oxoheptanamide)-iron(III)-complex [Example 63]	71 abs. %
Tris-(N-Cyclopropyl-3-oxobutanamide)-iron(III)-complex [Example 35]	44 abs. %
Tris-(N-butyl-N-methyl-3-oxobutaneamide)-iron(ill) Complex [Example 13]	71 abs. %
Tris-(N-hexyl-3-oxobutaneamide)-iron(III) Complex [Example 16]	60 abs. %
Tris-(N-methyl-3-oxobutaneamide)-iron(III) Complex [Example 4]	90 abs. %
Tris-(ethyl 4-(dimethylamino)-2,4-dioxobutanoate)-iron(III)-complex [Example 32]	81 abs. %
Tris-(ethyl N-(3-oxobutanoyl)glycinate)-iron(l) complex (Tris((3-Oxo-butyrylamino)ethyl acetate)iron) [Example 20]	77 abs. %

same assay, conditions: mouse, in vivo

Substance	Utilization n 15 d (abs. %)
Tris-(2-chloro-N-methyl-3-oxobutaneamide)-iron(III) Complex [Example 6]	57 abs. %
Tris-(N-(1-hydroxypropan-2-yl)-3-oxobutanamide)-iron(III)-complex [Example 44]	73 abs. %
Tris-(N-(2-hydroxyethyl)-3-oxobutanamide)-iron(III)-complex [Example 37]	34 abs. %
Tris-(N-(5-hydroxypentyl)-3-oxobutanamide)-iron(III)-complex [Example 40]	87 abs. %

Reference: patent publication US9943498B2, “Fe(III) complex compounds for the treatment and prophylaxis of iron deficiency symptoms and iron deficiency anemias” (Vifor (International) AG, priority 2010, dated 2018)
